Values joined by “and” are separate entries in the source; they are usually repeats but may differ in a detail not shown here. Equal entries are not always repeated.
How the values were obtained:
[1] = tested on: MAO-A; experiment: Metabolic stability in human liver mitochondrial fraction; format: in vitro ADME; settings: both, liver mitochondrial fractions, with clorgyline 100 nM
[2] = Blood:plasma ratio; format: in vitro ADME; settings: human, fresh whole blood and plasma
[3] = physchem; format: physicochemical; settings: pH 7.4
[4] = format: in vivo, human
[5] = tested on: healthy subjects; experiment: Phase I clinical safety and tolerability; format: in vivo, human; settings: all four doses, 9–21.5 mg IV
[6] = bolus IV administration, healthy volunteers; cited from earlier work
[7] = target: CYP2D6 (Homo sapiens, UniProt P10635); experiment: CYP phenotyping; settings: CYP2D6 bactosomes, 1 µM DMT fumarate
[8] = target: T1, CYP1A2 (Homo sapiens, UniProt P05177); experiment: CYP phenotyping; settings: CYP1A2 bactosomes, 1 µM DMT fumarate
T1 sequence (P05177 1-516): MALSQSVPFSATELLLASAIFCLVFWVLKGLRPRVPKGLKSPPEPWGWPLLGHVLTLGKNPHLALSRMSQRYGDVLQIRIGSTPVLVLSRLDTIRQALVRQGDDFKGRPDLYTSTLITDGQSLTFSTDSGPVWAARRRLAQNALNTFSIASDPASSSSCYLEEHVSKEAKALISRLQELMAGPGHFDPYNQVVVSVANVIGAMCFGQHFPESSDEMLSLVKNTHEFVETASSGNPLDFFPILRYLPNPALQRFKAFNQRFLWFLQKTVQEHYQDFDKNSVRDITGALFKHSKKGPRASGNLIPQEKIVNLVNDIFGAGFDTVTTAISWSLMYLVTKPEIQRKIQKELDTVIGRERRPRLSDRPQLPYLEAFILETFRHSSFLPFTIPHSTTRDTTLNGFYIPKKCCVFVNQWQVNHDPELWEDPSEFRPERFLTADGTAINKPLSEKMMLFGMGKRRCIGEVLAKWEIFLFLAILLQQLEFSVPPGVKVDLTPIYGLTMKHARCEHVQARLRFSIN

[9] = target: T2, CYP2B6 (Homo sapiens, UniProt P20813); experiment: CYP phenotyping; settings: CYP2B6 bactosomes, 1 µM DMT fumarate
T2 sequence (P20813 1-491): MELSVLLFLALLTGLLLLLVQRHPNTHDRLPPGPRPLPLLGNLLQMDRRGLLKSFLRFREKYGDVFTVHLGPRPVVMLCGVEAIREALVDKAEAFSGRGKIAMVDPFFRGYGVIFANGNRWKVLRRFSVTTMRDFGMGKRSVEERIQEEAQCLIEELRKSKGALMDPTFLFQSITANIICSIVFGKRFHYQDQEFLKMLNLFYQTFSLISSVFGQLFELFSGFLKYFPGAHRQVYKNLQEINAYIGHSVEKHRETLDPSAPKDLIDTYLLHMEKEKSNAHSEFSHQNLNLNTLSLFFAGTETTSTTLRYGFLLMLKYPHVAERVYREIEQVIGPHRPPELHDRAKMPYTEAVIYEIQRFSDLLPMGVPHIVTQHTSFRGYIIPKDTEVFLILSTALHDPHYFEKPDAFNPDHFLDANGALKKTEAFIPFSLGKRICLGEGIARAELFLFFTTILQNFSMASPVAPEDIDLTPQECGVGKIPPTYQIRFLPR

[10] = target: T3, CYP2C8 (Homo sapiens, UniProt P10632); experiment: CYP phenotyping; settings: CYP2C8 bactosomes, 1 µM DMT fumarate
T3 sequence (P10632 1-490): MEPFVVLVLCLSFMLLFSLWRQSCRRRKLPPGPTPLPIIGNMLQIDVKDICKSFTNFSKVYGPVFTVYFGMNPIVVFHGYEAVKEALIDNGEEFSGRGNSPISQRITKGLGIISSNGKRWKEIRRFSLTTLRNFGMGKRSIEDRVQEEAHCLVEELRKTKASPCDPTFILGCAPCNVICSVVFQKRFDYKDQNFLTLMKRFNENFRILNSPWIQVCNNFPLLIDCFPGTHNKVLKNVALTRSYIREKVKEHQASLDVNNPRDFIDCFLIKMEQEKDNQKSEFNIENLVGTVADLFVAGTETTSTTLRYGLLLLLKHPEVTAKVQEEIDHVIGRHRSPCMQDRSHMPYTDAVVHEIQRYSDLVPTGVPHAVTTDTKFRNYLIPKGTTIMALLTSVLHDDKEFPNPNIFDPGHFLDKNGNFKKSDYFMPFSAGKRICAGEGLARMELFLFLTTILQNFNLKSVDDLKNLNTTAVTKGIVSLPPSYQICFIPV

[11] = target: CYP2C9 (Homo sapiens, UniProt P11712); experiment: CYP phenotyping; settings: CYP2C9 bactosomes, 1 µM DMT fumarate
[12] = target: CYP3A4 (Homo sapiens, UniProt P08684); experiment: CYP phenotyping; settings: CYP3A4 bactosomes, 1 µM DMT fumarate
[13] = target: CYP3A5 (Homo sapiens, UniProt P20815); experiment: CYP phenotyping; settings: CYP3A5 bactosomes, 1 µM DMT fumarate
[14] = target: CYP2C19 (Homo sapiens, UniProt P33261); experiment: CYP phenotyping; settings: CYP2C19 bactosomes, 1 µM DMT fumarate
[15] = Plasma protein binding; settings: plasma protein binding result

CYP2D6, sequence (P10635 whole entry): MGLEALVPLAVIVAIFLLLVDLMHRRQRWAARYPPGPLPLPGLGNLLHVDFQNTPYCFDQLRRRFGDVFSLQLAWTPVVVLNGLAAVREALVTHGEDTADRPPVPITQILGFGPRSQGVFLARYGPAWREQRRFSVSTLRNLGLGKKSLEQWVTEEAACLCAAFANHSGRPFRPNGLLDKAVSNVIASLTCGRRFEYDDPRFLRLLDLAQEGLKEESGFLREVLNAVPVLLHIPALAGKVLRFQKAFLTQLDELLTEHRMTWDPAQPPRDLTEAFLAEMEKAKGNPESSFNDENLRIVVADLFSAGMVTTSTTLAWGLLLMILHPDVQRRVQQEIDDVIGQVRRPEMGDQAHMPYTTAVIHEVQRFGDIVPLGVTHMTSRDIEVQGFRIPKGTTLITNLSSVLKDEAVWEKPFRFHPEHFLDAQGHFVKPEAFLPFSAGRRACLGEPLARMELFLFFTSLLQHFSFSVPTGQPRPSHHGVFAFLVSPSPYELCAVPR
CYP3A4, sequence (P08684 whole entry): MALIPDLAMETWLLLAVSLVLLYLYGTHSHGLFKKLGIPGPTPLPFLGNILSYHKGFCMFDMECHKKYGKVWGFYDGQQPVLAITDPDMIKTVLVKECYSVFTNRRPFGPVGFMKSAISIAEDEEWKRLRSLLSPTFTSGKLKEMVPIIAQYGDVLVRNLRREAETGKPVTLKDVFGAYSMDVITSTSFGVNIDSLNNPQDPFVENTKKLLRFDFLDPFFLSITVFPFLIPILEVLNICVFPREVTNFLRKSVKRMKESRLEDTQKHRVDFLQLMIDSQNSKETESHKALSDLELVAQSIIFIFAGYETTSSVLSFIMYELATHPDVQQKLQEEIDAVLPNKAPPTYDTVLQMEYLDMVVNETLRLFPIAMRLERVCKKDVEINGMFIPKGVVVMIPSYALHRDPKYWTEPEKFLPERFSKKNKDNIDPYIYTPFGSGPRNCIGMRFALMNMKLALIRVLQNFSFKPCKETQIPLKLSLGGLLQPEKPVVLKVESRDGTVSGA
CYP2C19, sequence (P33261 whole entry): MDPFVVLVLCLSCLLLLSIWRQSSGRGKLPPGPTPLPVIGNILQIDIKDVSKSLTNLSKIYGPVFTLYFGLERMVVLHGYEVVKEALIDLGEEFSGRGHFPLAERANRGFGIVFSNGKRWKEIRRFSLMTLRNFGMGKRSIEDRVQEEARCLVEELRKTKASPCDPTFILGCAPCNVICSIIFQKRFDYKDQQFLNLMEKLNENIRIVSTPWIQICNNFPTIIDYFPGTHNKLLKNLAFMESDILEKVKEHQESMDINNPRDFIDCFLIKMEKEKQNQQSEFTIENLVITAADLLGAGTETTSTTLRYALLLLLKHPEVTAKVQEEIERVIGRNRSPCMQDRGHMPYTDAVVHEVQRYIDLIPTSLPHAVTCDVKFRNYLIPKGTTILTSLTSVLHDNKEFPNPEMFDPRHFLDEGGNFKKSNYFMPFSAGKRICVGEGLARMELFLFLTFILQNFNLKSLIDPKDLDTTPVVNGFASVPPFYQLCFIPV
CYP3A5, sequence (P20815 whole entry): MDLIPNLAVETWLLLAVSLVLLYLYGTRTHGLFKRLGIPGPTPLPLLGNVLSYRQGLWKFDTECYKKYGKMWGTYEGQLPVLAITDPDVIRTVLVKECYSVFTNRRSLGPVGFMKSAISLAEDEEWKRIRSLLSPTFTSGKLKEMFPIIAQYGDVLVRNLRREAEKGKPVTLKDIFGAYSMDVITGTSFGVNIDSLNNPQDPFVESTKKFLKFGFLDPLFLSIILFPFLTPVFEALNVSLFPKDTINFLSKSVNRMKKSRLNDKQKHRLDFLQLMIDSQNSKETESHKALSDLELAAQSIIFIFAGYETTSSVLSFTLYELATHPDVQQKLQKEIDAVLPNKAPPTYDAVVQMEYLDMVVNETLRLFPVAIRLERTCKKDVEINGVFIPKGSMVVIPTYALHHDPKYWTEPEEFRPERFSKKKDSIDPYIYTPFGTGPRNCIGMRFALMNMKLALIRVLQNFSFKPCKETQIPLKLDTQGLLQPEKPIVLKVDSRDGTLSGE
CYP2C9, sequence (P11712 whole entry): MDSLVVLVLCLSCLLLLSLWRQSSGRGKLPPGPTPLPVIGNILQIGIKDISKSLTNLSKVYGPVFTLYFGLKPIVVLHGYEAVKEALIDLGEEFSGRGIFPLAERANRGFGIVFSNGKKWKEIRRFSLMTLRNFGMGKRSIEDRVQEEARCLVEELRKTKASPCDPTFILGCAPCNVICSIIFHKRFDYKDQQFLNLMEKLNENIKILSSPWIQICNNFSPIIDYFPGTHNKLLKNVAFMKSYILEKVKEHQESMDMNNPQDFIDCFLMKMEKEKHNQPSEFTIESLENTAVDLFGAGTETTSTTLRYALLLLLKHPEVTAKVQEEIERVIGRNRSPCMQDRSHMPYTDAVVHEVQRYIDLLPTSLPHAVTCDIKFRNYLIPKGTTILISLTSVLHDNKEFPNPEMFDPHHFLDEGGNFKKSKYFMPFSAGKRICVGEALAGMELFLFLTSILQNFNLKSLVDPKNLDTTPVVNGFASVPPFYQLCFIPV

With `CN(C)CCc1c[nH]c2ccccc12` [DMT, N,N-dimethyltryptamine] the microsomal CLint at 3.1 µM [1] was less than 3.9 µL/min/mg, the blood plasma ratio at 30 min, 1 µM [2] was 1.53 and the logD [3] was 0.15. The “Mean measured concentrations of DMT at the 120 min and 240 min time points” value ([4]; all cohorts) was less than 0.1 ng/mL, the concentration at 5 min ([4]; human, plasma, intravenous, 6 mg, Individual C5min, following a 6 mg dose over 5 min, across all dose cohorts) was 3.32 to 43 ng/mL and the half-life ([4]; human, plasma, iv, Mean elimination half-life (plasma), all doses, 9–21.5 mg IV 10-min infusion) was 10 to 12 min. The Safety and tolerability [5] was “safe and well tolerated”, the Serious adverse events [5] was “no serious AEs” and the “Time to peak blood concentrations” value [6] was “approximately 2 min”. The Intrinsic clearance [7] was 801 µl/min/nmol CYP, the “Intrinsic clearance (no turnover detected)” value [8] was less than 29 µl/min/nmol CYP and the “Intrinsic clearance (no turnover detected)” value [9] was less than 29 µl/min/nmol CYP. For the same molecule, the “Intrinsic clearance (no turnover detected)” value [10] was less than 29 µl/min/nmol CYP, the “Intrinsic clearance (no turnover detected)” value [11] was less than 29 µl/min/nmol CYP and the “Intrinsic clearance (no turnover detected)” value [12] was less than 29 µl/min/nmol CYP. The “Intrinsic clearance (no turnover detected)” value [13] was less than 29 µl/min/nmol CYP, the Intrinsic clearance [14] was 37 µl/min/nmol CYP and the “Unbound in human plasma” value [15] was > 65% and 67.7%.

From article PMC10122081 (European Journal of Drug Metabolism and Pharmacokinetics, 2023)
